Measurements as given in ChEMBL document CHEMBL1201862, “PubChem BioAssay data set” (2004).
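Five compound concentrations were applied to cells in 96-well plates for 48 hours; endpoints were derived by simple linear interpolation of the resulting dose-response curve. The concentration for 50% growth inhibition is given as GI50.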 Calls of active or inactive are those of the source. No stated cut-off is given here; in the data, active = GI50 up to about 1.1 µM and inactive = higher.

Legend:
Assay in all cases: growth of human tumour cells (NCI), 48 h
LOX IMVI = test system: LOX IMVI
RPMI-8226 = test system: RPMI-8226
TK-10 = test system: TK-10
SF-539 = test system: SF-539
SK-MEL-2 = test system: SK-MEL-2
OVCAR-4 = test system: OVCAR-4
SW-620 = test system: SW-620
SK-MEL-5 = test system: SK-MEL-5
SK-OV-3 = test system: SK-OV-3
Malme-3M = test system: Malme-3M
UACC-257 = test system: UACC-257
IGROV-1 = test system: IGROV-1
K562 = test system: K562
CAKI-1 = test system: CAKI-1
SNB-75 = test system: SNB-75
U-251 = test system: U-251
HCT-15 = test system: HCT-15
RXF 393 = test system: RXF 393

| Compound | GI50 (LOX IMVI) | GI50 (RPMI-8226) | GI50 (TK-10) | GI50 (SF-539) | GI50 (SK-MEL-2) | GI50 (OVCAR-4) | GI50 (SW-620) | GI50 (SK-MEL-5) | GI50 (SK-OV-3) | GI50 (Malme-3M) | GI50 (UACC-257) | GI50 (IGROV-1) | GI50 (K562) | GI50 (CAKI-1) | GI50 (SNB-75) | GI50 (U-251) | GI50 (HCT-15) [µM] | GI50 (RXF 393) |
| --- | --- | --- | --- | --- | --- | --- | --- | --- | --- | --- | --- | --- | --- | --- | --- | --- | --- | --- |
| c1cc(-c2cn3c(n2)SCC3)ccn1 | > 59.2 µM (inactive) | > 65.5 µM (inactive) | > 100 µM (inactive) | > 44.9 µM (inactive) | > 100 µM (inactive) | > 100 µM (inactive) | > 25.2 µM (inactive) | > 100 µM (inactive) | > 100 µM (inactive) | > 100 µM (inactive) | > 100 µM (inactive) | > 100 µM (inactive) | > 31.6 µM (inactive) | > 100 µM (inactive) | > 100 µM (inactive) | > 73.3 µM (inactive) | > 43.2 | – |
| Cc1nc(-n2nc(-c3ccccc3)cc2-c2ccccc2)sc1C(=O)CC(=O)C(=O)Nc1ccc(Cl)c(Cl)c1 | 71 µM (inactive) | 41.8 µM (inactive) | > 100 µM (inactive) | 67.1 µM (inactive) | > 100 µM (inactive) | 66.4 µM (inactive) | 65.9 µM (inactive) | – | 51.3 µM (inactive) | > 100 µM (inactive) | 44.5 µM (inactive) | > 100 µM (inactive) | 41.6 µM (inactive) | 83 µM (inactive) | 55 µM (inactive) | 78.2 µM (inactive) | 56.1 | > 100 µM (inactive) |
| COc1ccccc1NC(=O)C1=C(C)NC(C)=C(C(=O)Nc2ccccc2OC)C1c1ccc(C(C)C)cc1 | > 100 µM (inactive) | 7.38 µM (inactive) | > 100 µM (inactive) | > 100 µM (inactive) | > 100 µM (inactive) | 16.8 µM (inactive) | > 100 µM (inactive) | 38.9 µM (inactive) | > 100 µM (inactive) | 67.6 µM (inactive) | 45.2 µM (inactive) | > 100 µM (inactive) | – | > 100 µM (inactive) | 27 µM (inactive) | 84.3 µM (inactive) | > 100 | – |
| CC[C@@H]1NC(C(=O)OC)Cc2c1[nH]c1ccccc21 (stereo partly drawn) | > 100 µM (inactive) | – | > 100 µM (inactive) | > 100 µM (inactive) | > 100 µM (inactive) | > 100 µM (inactive) | > 100 µM (inactive) | > 100 µM (inactive) | > 100 µM (inactive) | > 100 µM (inactive) | > 100 µM (inactive) | > 100 µM (inactive) | > 100 µM (inactive) | > 100 µM (inactive) | > 100 µM (inactive) | > 100 µM (inactive) | > 100 | – |
| Cc1[nH]c2ccccc2c1C1Cc2ccccc2N1C(=O)C#Cc1ccc([N+](=O)[O-])cc1 (stereo not drawn) | > 100 µM (inactive) | 76 µM (inactive) | > 100 µM (inactive) | > 100 µM (inactive) | – | 43.7 µM (inactive) | > 100 µM (inactive) | – | > 100 µM (inactive) | > 100 µM (inactive) | > 100 µM (inactive) | > 100 µM (inactive) | > 100 µM (inactive) | – | > 100 µM (inactive) | > 100 µM (inactive) | – | 6.81 µM (inactive) |
| C=CCONC(=O)c1ccc(Cl)cc1 | > 100 µM (inactive) | > 100 µM (inactive) | > 100 µM (inactive) | > 100 µM (inactive) | > 100 µM (inactive) | > 100 µM (inactive) | > 100 µM (inactive) | > 100 µM (inactive) | > 100 µM (inactive) | > 100 µM (inactive) | > 100 µM (inactive) | > 100 µM (inactive) | > 100 µM (inactive) | > 100 µM (inactive) | 84.1 µM (inactive) | > 100 µM (inactive) | > 100 | > 100 µM (inactive) |
| O=C1C(c2ccccc2)=C(c2ccccc2)C(c2ccc(CCCCCCc3ccc(C4=C(c5ccccc5)C(=O)C(c5ccccc5)=C4c4ccccc4)cc3)cc2)=C1c1ccccc1 | – | > 100 µM (inactive) | > 100 µM (inactive) | > 100 µM (inactive) | > 100 µM (inactive) | > 100 µM (inactive) | > 100 µM (inactive) | > 100 µM (inactive) | – | > 100 µM (inactive) | > 100 µM (inactive) | > 100 µM (inactive) | > 100 µM (inactive) | – | – | 64.6 µM (inactive) | > 100 | 26.4 µM (inactive) |
| CCN(c1ccc(Br)cc1)c1c(Br)c(=O)nc2ccccn12 | – | 74.5 µM (inactive) | > 100 µM (inactive) | > 100 µM (inactive) | > 100 µM (inactive) | – | > 100 µM (inactive) | 59.8 µM (inactive) | 51.5 µM (inactive) | 64.9 µM (inactive) | – | > 100 µM (inactive) | 90.6 µM (inactive) | 93.1 µM (inactive) | > 100 µM (inactive) | > 100 µM (inactive) | 99.1 | – |
| CCCCCCCCC#CCCCCCCC(F)C(=O)O (stereo not drawn) | > 100 µM (inactive) | 29.8 µM (inactive) | > 100 µM (inactive) | > 100 µM (inactive) | > 100 µM (inactive) | 83.6 µM (inactive) | > 100 µM (inactive) | > 100 µM (inactive) | > 100 µM (inactive) | > 100 µM (inactive) | > 100 µM (inactive) | > 100 µM (inactive) | 40 µM (inactive) | – | > 100 µM (inactive) | > 100 µM (inactive) | > 100 | > 100 µM (inactive) |
| O=C(CC1OC(O)C(Cl)=C1Cl)c1cccnc1 (stereo not drawn) | > 100 µM (inactive) | > 34.7 µM (inactive) | > 100 µM (inactive) | 0.359 µM (active) | – | > 100 µM (inactive) | – | 83.8 µM (inactive) | > 100 µM (inactive) | > 100 µM (inactive) | > 100 µM (inactive) | > 100 µM (inactive) | > 100 µM (inactive) | > 100 µM (inactive) | > 100 µM (inactive) | > 41.2 µM (inactive) | > 41.1 | > 100 µM (inactive) |
| CC(=O)OCCOCNC(=S)N/N=C/c1ccc([N+](=O)[O-])o1 | 31.6 µM (inactive) | – | > 100 µM (inactive) | 43.9 µM (inactive) | 44.1 µM (inactive) | > 100 µM (inactive) | 34.5 µM (inactive) | 28.7 µM (inactive) | > 100 µM (inactive) | 94.8 µM (inactive) | 34.4 µM (inactive) | > 100 µM (inactive) | 37.1 µM (inactive) | – | > 100 µM (inactive) | 83.9 µM (inactive) | 52.6 | > 100 µM (inactive) |
| COC(=O)c1ccc(OCc2ccc3nc(OC)c(OC)nc3c2)cc1 | > 100 µM (inactive) | > 100 µM (inactive) | > 100 µM (inactive) | > 100 µM (inactive) | > 100 µM (inactive) | > 100 µM (inactive) | > 100 µM (inactive) | > 100 µM (inactive) | – | > 100 µM (inactive) | > 100 µM (inactive) | – | > 100 µM (inactive) | > 100 µM (inactive) | > 100 µM (inactive) | 49.1 µM (inactive) | > 100 | – |
| O=C(c1cc2c(C(F)(F)F)onc2c2ccccc12)C(F)(F)F | 1.63 µM (inactive) | 0.935 µM (active) | 7.4 µM (inactive) | 3.75 µM (inactive) | 3.4 µM (inactive) | 3.65 µM (inactive) | 2.68 µM (inactive) | 4.16 µM (inactive) | 12.3 µM (inactive) | – | 5.61 µM (inactive) | 2.74 µM (inactive) | 0.855 µM (active) | 2.78 µM (inactive) | 1.16 µM (inactive) | 0.371 µM (active) | 0.741 | 4.3 µM (inactive) |
| CN1C(=O)C2C(C1=O)C1(O)c3ccccc3C2(N)c2ccccc21 (stereo not drawn) | > 100 µM (inactive) | – | > 100 µM (inactive) | > 100 µM (inactive) | > 100 µM (inactive) | > 100 µM (inactive) | > 100 µM (inactive) | > 100 µM (inactive) | > 100 µM (inactive) | > 100 µM (inactive) | > 100 µM (inactive) | > 100 µM (inactive) | > 100 µM (inactive) | > 100 µM (inactive) | > 100 µM (inactive) | > 100 µM (inactive) | > 100 | > 100 µM (inactive) |
| C=C(CO)CC(O)c1ccccc1 (stereo not drawn) | > 100 µM (inactive) | > 100 µM (inactive) | > 100 µM (inactive) | > 100 µM (inactive) | > 100 µM (inactive) | > 100 µM (inactive) | > 100 µM (inactive) | > 100 µM (inactive) | > 100 µM (inactive) | – | – | > 100 µM (inactive) | > 100 µM (inactive) | – | > 100 µM (inactive) | > 100 µM (inactive) | > 100 | > 100 µM (inactive) |
| O=C1c2cc3c(cc2[C@@H]2NC4CCCC14O2)OCO3 (stereo partly drawn) | – | – | > 100 µM (inactive) | > 100 µM (inactive) | > 100 µM (inactive) | > 100 µM (inactive) | > 100 µM (inactive) | > 100 µM (inactive) | > 100 µM (inactive) | – | > 100 µM (inactive) | > 100 µM (inactive) | > 100 µM (inactive) | > 100 µM (inactive) | > 100 µM (inactive) | > 100 µM (inactive) | – | > 100 µM (inactive) |
| CS(=O)(=O)N(N(CCCl)S(=O)(=O)c1ccccc1)S(C)(=O)=O | – | > 100 µM (inactive) | > 100 µM (inactive) | 38.5 µM (inactive) | > 100 µM (inactive) | > 100 µM (inactive) | > 100 µM (inactive) | 52.7 µM (inactive) | – | > 100 µM (inactive) | > 100 µM (inactive) | – | > 100 µM (inactive) | > 100 µM (inactive) | 50.8 µM (inactive) | 17.7 µM (inactive) | > 100 | > 100 µM (inactive) |
